Consider 77 sequences from the supplement of paper PMC11208160.

The nature of this series: recombinant barcode read abundance after kanamycin selection (control-corrected) (log10(CPM+1)); higher = more efficient recombination; sequences stand for … in AGTGCAGAGAAAATCGGCCAGTTTTCTCTGCCTGCAGTCCGCATGCCGT…AGATTTATGCAGCGGACTGCCTTTCTCCCAAAGTGATAAACCGGACAGTATCATGGACCGGTTTTCCCGGTAATCCGTATTTGCAAGGTTGGTTTCACT; site = the 11-nt target. The method, boiled down: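 Oligos holding a promoter, target, barcode and the J23119-driven first 104 bases of the bridge RNA were Gibson-cloned into a vector that supplied the other 73 bp plus a T7-inducible recombinase. This library was co-electroporated with a donor plasmid into E. coli. Two replicates went on chloramphenicol/ampicillin LB agar (control) and two on chloramphenicol/ampicillin/kanamycin with 0.1 mM IPTG. Recombination efficiency is read from averaged, control-corrected barcode counts per million at recombinant junctions, reported as log10(CPM+1).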
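Further: IS621 recombinase and bridge RNA in Escherichia coli cells.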

In the case of “GGCGATCCTTGGGTTCTAACCTGTTGCCT (site GACGATCCTAG)”, the “recombinant barcode read abundance (log10)” value worked out at 0.151.
On to “GGCGATCCTTGGGTTCTAACCTGTTGCCT (site GCCGATCCTAG)”, for which the “recombinant barcode read abundance (log10)” value worked out at 0.213.
The value for “GGCGATCCTTGGGTTCTAACCTGTTGCCT (site GGCGATCCTAG)” was 1.15; that for “GGCGATCCTTGGGTTCTAACCTGTTGCCT (site GTCGATCCTAG)” was 0.059.
The value for “GGCGCGTCTTGGGTTCTAACCTGTTGCAT (site GGAGCGTCTAC)” was 0.0291; that for “GGCGCGTCTTGGGTTCTAACCTGTTGCAT (site GGCGCGTCTAT)” was 0.589.
As to “GGCGGCCCTTGGGTTCTAACCTGTTGCGG (site GACTGCCCTCC)”, the “recombinant barcode read abundance (log10)” value came to 0.103.
The value for “GGCGGCCCTTGGGTTCTAACCTGTTGCGG (site GGCGGCCCTCC)” was 2.31; that for “GGCGTGCCTTGGGTTCTAACCTGTTGCGT (site AAGAACTCTTG)” was 0.0755.
As for “GGCGTGCCTTGGGTTCTAACCTGTTGCGT (site GGCGTGCCTAC)”, the “recombinant barcode read abundance (log10)” value came to 2.95.
Consider “GGCGTGTCTTGGGTTCTAACCTGTTGCGG (site GACGTGTCTCG)”, for which the “recombinant barcode read abundance (log10)” value amounted to 0.125.
The value for “GGCGTGTCTTGGGTTCTAACCTGTTGCGG (site GGCGTGTCTCC)” was 2.07.
As to “GGCTAGTCTTGGGTTCTAACCTGTTGCTT (site GGATTGTCTAA)”, the “recombinant barcode read abundance (log10)” value came to 0.109.
The value for “GGCTAGTCTTGGGTTCTAACCTGTTGCTT (site GGCTAGTCTAA)” was 0.561; that for “GGCTCTACTTGGGTTCTAACCTGTTGCGG (site GGCTAGACTCC)” was 0.0656.
The value for “GGCTCTACTTGGGTTCTAACCTGTTGCGG (site GGCTCTACTCC)” was 0.326.
The value for “GGCTCTTCTTGGGTTCTAACCTGTTGCCT (site GGCACTTCTAG)” was 0.221; that for “GGCTCTTCTTGGGTTCTAACCTGTTGCCT (site GGCTCTTCTAG)” was 0.332; that for “GGCTGTCCTTGGGTTCTAACCTGTTGCGT (site CTAAAAGCTTT)” was 0.0937.
For “GGCTGTCCTTGGGTTCTAACCTGTTGCGT (site GGCTGTCCTAC)”, the “recombinant barcode read abundance (log10)” value amounted to 0.751.
The value for “GGGAACCCTTGGGTTCTAACCTGTTGCTG (site GGGAACCCTAA)” was 0.0418; that for “GGGAACCCTTGGGTTCTAACCTGTTGCTG (site GGGAACCCTCA)” was 1.5.
The value for “GGGAACCCTTGGGTTCTAACCTGTTGCTG (site GGGAACCCTGA)” was 0.0561.
The value for “GGGAACCCTTGGGTTCTAACCTGTTGCTG (site GGGAACCCTTA)” was 0.867; that for “GGGACAACTTGGGTTCTAACCTGTTGCCT (site GGGACAACTAG)” was 0.0953.
For “GGGACAACTTGGGTTCTAACCTGTTGCCT (site GGGGTAACTAG)”, the “recombinant barcode read abundance (log10)” value was 0.0828.
The value for “GGGACTACTTGGGTTCTAACCTGTTGCGG (site CGGGCTACTCC)” was 0.0949.
As for “GGGACTACTTGGGTTCTAACCTGTTGCGG (site GGGACTACTCC)”, the “recombinant barcode read abundance (log10)” value came to 1.86.
The value for “GGGACTTCTTGGGTTCTAACCTGTTGCAT (site GGGACTTCTAT)” was 0.937; that for “GGGACTTCTTGGGTTCTAACCTGTTGCAT (site GGGCCTTCTAT)” was 0.0615; that for “GGGACTTCTTGGGTTCTAACCTGTTGCAT (site GGGGCTTCTAT)” was 0.273.
The value for “GGGACTTCTTGGGTTCTAACCTGTTGCAT (site GGGTCTTCTAT)” was 0.164; that for “GGGATGGCTTGGGTTCTAACCTGTTGCCT (site GGGATGGCTAG)” was 1.32; that for “GGGATGGCTTGGGTTCTAACCTGTTGCCT (site TGGATGGCTAG)” was 0.0489.
The value for “GGGCAACCTTGGGTTCTAACCTGTTGCGT (site GGGCAACCTAC)” was 2.84; that for “GGGCAACCTTGGGTTCTAACCTGTTGCGT (site GGGCAGCCTAG)” was 0.117.
For the sequence “GGGCACACTTGGGTTCTAACCTGTTGCAC (site CTTGCATCTAG)”, the “recombinant barcode read abundance (log10)” value amounted to 0.244.
As to “GGGCACACTTGGGTTCTAACCTGTTGCAC (site GGGCACACTGT)”, the “recombinant barcode read abundance (log10)” value worked out at 2.52.
The value for “GGGCACACTTGGGTTCTAACCTGTTGCCA (site GGGAACACTTG)” was 0.193; that for “GGGCACACTTGGGTTCTAACCTGTTGCCA (site GGGCACACTTG)” was 0.698.
The value for “GGGCATCCTTGGGTTCTAACCTGTTGCAT (site GGGCATCCTAT)” was 1.82; that for “GGGCATCCTTGGGTTCTAACCTGTTGCAT (site TCATTAGCTCG)” was 0.246.
The value for “GGGCCCGCTTGGGTTCTAACCTGTTGCGG (site GGACGCGCTCC)” was 0.111; that for “GGGCCCGCTTGGGTTCTAACCTGTTGCGG (site GGGCCCGCTCC)” was 1.29.
As for “GGGCCTACTTGGGTTCTAACCTGTTGCTA (site GGGCCTACTAA)”, the “recombinant barcode read abundance (log10)” value came out at 0.0406.
As to “GGGCCTACTTGGGTTCTAACCTGTTGCTA (site GGGCCTACTCA)”, the “recombinant barcode read abundance (log10)” value stood at 0.642.
The value for “GGGCCTACTTGGGTTCTAACCTGTTGCTA (site GGGCCTACTGA)” was 0.482; that for “GGGCCTACTTGGGTTCTAACCTGTTGCTA (site GGGCCTACTTA)” was 1.36; that for “GGGCCTACTTGGGTTCTAACCTGTTGCTG (site GGGCCTACTAA)” was 0.165.
The value for “GGGCCTACTTGGGTTCTAACCTGTTGCTG (site GGGCCTACTCA)” was 2.06.
The value for “GGGCCTACTTGGGTTCTAACCTGTTGCTG (site GGGCCTACTGA)” was 0.215; that for “GGGCCTACTTGGGTTCTAACCTGTTGCTG (site GGGCCTACTTA)” was 0.121.
As to “GGGGAATCTTGGGTTCTAACCTGTTGCAT (site GGGGAATCTAT)”, the “recombinant barcode read abundance (log10)” value was 1.96.
The value for “GGGGAATCTTGGGTTCTAACCTGTTGCAT (site GGGGACTCTGT)” was 0.079.
The value for “GGGGACTCTTGGGTTCTAACCTGTTGCAC (site GGGGAATCTAT)” was 0.0994.
The value for “GGGGACTCTTGGGTTCTAACCTGTTGCAC (site GGGGACTCTGT)” was 3.1.
On to “GGGGCACCTTGGGTTCTAACCTGTTGCTA (site GGGGCACCTTA)”, for which the “recombinant barcode read abundance (log10)” value was found to be 2.35.
The value for “GGGGCACCTTGGGTTCTAACCTGTTGCTA (site TGGGCACCTAA)” was 0.128; that for “GGGGCGCCTTGGGTTCTAACCTGTTGCCT (site GGGGCGACTAG)” was 0.44.
Consider “GGGGCGCCTTGGGTTCTAACCTGTTGCCT (site GGGGCGCCTAG)”, for which the “recombinant barcode read abundance (log10)” value turned out to be 1.76.
As to “GGGGCGCCTTGGGTTCTAACCTGTTGCCT (site GGGGCGGCTAG)”, the “recombinant barcode read abundance (log10)” value was determined as 0.
The value for “GGGGCGCCTTGGGTTCTAACCTGTTGCCT (site GGGGCGTCTAG)” was 0.279.
The value for “GGGGTGTCTTGGGTTCTAACCTGTTGCCG (site ATTTAACCTAC)” was 0.0514.
The value for “GGGGTGTCTTGGGTTCTAACCTGTTGCCG (site GGGGTGTCTCG)” was 0.675.
Turning to “GGGGTGTCTTGGGTTCTAACCTGTTGCTG (site GGGCTGTCTAA)”, the “recombinant barcode read abundance (log10)” value came out at 0.448.
The value for “GGGGTGTCTTGGGTTCTAACCTGTTGCTG (site GGGGTGTCTCA)” was 0.413.
The value for “GGGGTTCCTTGGGTTCTAACCTGTTGCAT (site GGGGTTCCTAA)” was 0.164; that for “GGGGTTCCTTGGGTTCTAACCTGTTGCAT (site GGGGTTCCTAC)” was 0.129.
The value for “GGGGTTCCTTGGGTTCTAACCTGTTGCAT (site GGGGTTCCTAG)” was 1.19; that for “GGGGTTCCTTGGGTTCTAACCTGTTGCAT (site GGGGTTCCTAT)” was 2.47.
Take “GGGTCACCTTGGGTTCTAACCTGTTGCGG (site CCAAAGACTAA)”: the “recombinant barcode read abundance (log10)” value stood at 0.564.
The value for “GGGTCACCTTGGGTTCTAACCTGTTGCGG (site GGGTCACCTCC)” was 2.8.
The value for “GGGTCCACTTGGGTTCTAACCTGTTGCGG (site GGGTCCACTCC)” was 2.02.
The value for “GGGTCCACTTGGGTTCTAACCTGTTGCGG (site GGGTCCACTTG)” was 0.143; that for “GGGTCGCCTTGGGTTCTAACCTGTTGCTT (site CGGCCGCCTAA)” was 0.364; that for “GGGTCGCCTTGGGTTCTAACCTGTTGCTT (site GGGTCGCCTAA)” was 0.128.
Take “GGGTCGGCTTGGGTTCTAACCTGTTGCGT (site GGGTCGGCTAC)”: the “recombinant barcode read abundance (log10)” value came out at 2.68.
